Reference: US6426355B1, “Heterocyclic carboxamide-containing thiourea inhibitors of herpes viruses containing phenylenediamine group” (American Home Products, priority 1998, dated 2002)
In brackets after ≈: the same amount, converted by molar mass.

Experiments:
[1] = tested on: HCMV recombinant mutant virus (RV145); test: HCMV microtiter plate assay (beta-glucuronidase reporter); format: cell-based, Human Cytomegalovirus; details: for IC50 (ug/ml) HCMV: HCMV in human foreskin fibroblasts; for IC50: Human betaherpesvirus 5, Fibroblast, read-out: IC50 (ug/ml) HCMV
In short: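 Human foreskin fibroblasts were infected with RV145 in the presence of inhibitor. β-glucuronidase under a viral promoter served as the replication marker. At 96 h post-infection, lysates in pH 7.0 phosphate with Triton X-100/sarkosyl were assayed colorimetrically or fluorometrically, and IC50 was estimated from varying inhibitor amounts.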

HSV-1 = test: HSV Antiviral (ELISA) assay; format: cell-based; details: for IC50 (ug/ml) HSV: HSV-1 in Vero cells; for IC50: Human alphaherpesvirus 1, HSV-1 in Vero cells, read-out: IC50 (ug/ml) HSV
In short: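 Vero cells in DMEM/2% FBS pretreated with compound 30 min before HSV-1 infection (MOI 0.006), then ~24 h at 37 °C. Viral gD detected by ELISA with β-galactosidase secondary and 4-methylumbelliferyl-galactoside (ex 365/em 450 nm); IC50 from fluorescence versus untreated infected cells.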

VZV strain Ellen = test: VZV Antiviral (ELISA) assay; format: cell-based; details: for IC50 (ug/ml) VZV / % inhibition 10 ug/ml VZV: VZV strain Ellen in HFF cells; for IC50: Human alphaherpesvirus 3, VZV strain Ellen in HFF cells, read-out: IC50 (ug/ml) VZV; for inhibition at 10 µg/mL: Human alphaherpesvirus 3, read-out: % inhibition 10 ug/ml VZV, at 10 ug/ml, VZV strain Ellen in HFF cells; for % inhibition 10 ug/ml VZV: at 10 ug/ml
In short: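 Low-MOI (<0.1) Ellen infection of HFF overnight; cell mix plated 3.5×10^4/well with compound, DMEM + 2% FBS, 3 d, 37° C, 5% CO2. Fix, anti-gpII mAb ELISA, MUG substrate, fluorescence. IC50 vs compound-free signal.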

| SMILES | IC50 (ug/ml) HCMV [1] [µg/mL] | IC50 (ug/ml) HSV (HSV-1) [µg/mL] | IC50 (ug/ml) VZV (VZV strain Ellen) [µg/mL] | IC50 [1] [µg/mL] | IC50 (HSV-1) [µg/mL] | IC50 (VZV strain Ellen) [µg/mL] | inhibition at 10 µg/mL (VZV strain Ellen) [%] | % inhibition 10 ug/ml VZV (VZV strain Ellen) [%] |
| --- | --- | --- | --- | --- | --- | --- | --- | --- |
| COc1cc(OC)c(NC(=S)Nc2ccc(NC(=O)c3nnsc3C)cc2)cc1Cl [Example 279] | >10 | >10 | >10 | – | – | – | – | – |
| CC(NC(=S)Nc1ccc(NC(=O)c2cnccn2)cc1)c1ccc(F)cc1 (centres unmarked) [Example 1127, Pyrazine-2-carboxylic acid (4-{3-[1-(4-fluoro-phenyl)-ethyl]-thioureido}-phenyl)-amide] | – | – | – | 1 (≈ 2.53 µM) | 9.5 (≈ 24 µM) | 3.7 (≈ 9.36 µM) | – | – |
| O=C(Nc1ccc(NC(=S)Nc2cc(N3CCCCC3)cc(C(F)(F)F)c2)cc1)c1csnn1 [Example 535] | 0.016 (≈ 0.0316 µM) | >10 | >10 | – | – | – | – | – |
| COc1c(Cl)cc(NC(=S)Nc2ccc(NC(=O)c3cccc(F)c3)cc2)cc1Cl [Example 922, N-{4-[3-(3,5-Dichloro-4-methoxy-phenyl)-thioureido]-phenyl}-3-fluoro-benzamide] | – | – | – | 0.01 (≈ 0.0215 µM) | > 10 | 7 (≈ 15.1 µM) | 84 | – |
| O=C(Nc1ccc(NC(=S)NCCOc2ccccc2)cc1)c1csnn1 [Example 627] | 0.014 (≈ 0.035 µM) | 10 (≈ 25 µM) | >10 | – | – | – | – | – |
| O=C(Nc1ccc(NC(=S)NCCc2cccc(Cl)c2)cc1)c1csnn1 [Example 562] | 0.004 (≈ 0.00957 µM) | >10 | 8 (≈ 19.1 µM) | – | – | – | – | – |
| O=C(CN1CCOCC1)Nc1ccc(NC(=S)Nc2ccc(NC(=O)c3ccco3)cc2)cc1Cl [Example 368] | 0.35 (≈ 0.681 µM) | >10 | >10 | – | – | – | – | 20 |
| CC(CCc1ccccc1)NC(=S)Nc1ccc(NC(=O)c2csnn2)cc1 (centres unmarked) [Example 646] | 0.03 (≈ 0.0729 µM) | >10 | 2.5 (≈ 6.07 µM) | – | – | – | – | – |
| O=C(Nc1ccc(NC(=S)Nc2ccc(Cl)nc2)cc1)c1ccco1 [Example 445] | 0.15 (≈ 0.402 µM) | 10 (≈ 26.8 µM) | >10 | – | – | – | – | – |
| O=C(Nc1ccc(NC(=S)Nc2cccc(S(=O)(=O)CCO)c2)cc1)c1ccco1 [Example 1018, Furan-2-carboxylic acid (4-{3-[3-(2-hydroxy-ethanesulfonyl)-phenyl]-thioureido} -phenyl)-amide] | – | – | – | 0.4 (≈ 0.898 µM) | > 10 | > 10 | 2 | – |
| COc1c(Cl)cc(NC(=S)Nc2ccc(NC(=O)c3csnn3)cc2)cc1Cl [Example 201] | 0.023 (≈ 0.0506 µM) | >10 | 8 (≈ 17.6 µM) | – | – | – | – | 78 |
| CC(C)(C)c1cccc(NC(=S)Nc2ccc(NC(=O)c3csnn3)cc2)c1 [Example 509] | 0.03 (≈ 0.0729 µM) | >10 | >10 | – | – | – | – | 31 |
| CCCCc1nc(C(=O)Nc2ccc(NC(=S)Nc3cc(Cl)cc(Cl)c3)cc2)cs1 [Example 1136, 2-Butyl-thiazole-4-carboxylic acid {4-[3-(3,5-dichloro-phenyl)-thioureido]-phenyl}-amide] | – | – | – | 1.6 (≈ 3.34 µM) | 2.9 (≈ 6.05 µM) | 5 (≈ 10.4 µM) | – | – |
| CN1CCC(N(C)c2ccc(NC(=S)Nc3ccc(NC(=O)c4ccccn4)cc3)cc2Cl)CC1 [Example 376] | 0.8 (≈ 1.57 µM) | 3 (≈ 5.89 µM) | 7 (≈ 13.8 µM) | – | – | – | – | 83 |
| Cc1ccc(CCNC(=S)Nc2ccc(NC(=O)c3ccco3)cc2)cc1 [Example 605] | 0.062 (≈ 0.163 µM) | >10 | 10 (≈ 26.4 µM) | – | – | – | – | – |
| O=C(Nc1ccc(NC(=S)Nc2ccc(F)c(Cl)c2)cc1)c1ccco1 [Example 969, Furan-2-carboxylic acid {4-[3-(3-chloro-4-fluoro-phenyl)-thioureido]-phenyl}-amide] | – | – | – | 0.03 (≈ 0.077 µM) | > 10 | > 10 | 40 | – |
| O=C(Nc1ccc(NC(=S)Nc2cccc(I)c2)cc1)c1csnn1 [Example 508] | 0.013 (≈ 0.027 µM) | >10 | >10 | – | – | – | – | 7 |
| O=C(Nc1ccc(NC(=S)Nc2cccc(F)c2)cc1)c1ccco1 [Example 1007, Furan-2-carboxylic acid {4-[3-(3-fluoro-phenyl)-thioureido]-phenyl} -amide] | – | – | – | 0.11 (≈ 0.31 µM) | > 10 | > 10 | 18 | – |
| O=C(Nc1ccc(NC(=S)NCCc2cccc(Cl)c2)cc1)c1ccco1 [Example 564] | 0.027 (≈ 0.0675 µM) | >10 | 5 (≈ 12.5 µM) | – | – | – | – | – |

| SMILES | IC50 (ug/ml) HCMV [1] [µg/mL] | IC50 (ug/ml) HSV (HSV-1) [µg/mL] | IC50 (ug/ml) VZV (VZV strain Ellen) [µg/mL] | IC50 [1] [µg/mL] | IC50 (HSV-1) [µg/mL] | IC50 (VZV strain Ellen) [µg/mL] | inhibition at 10 µg/mL (VZV strain Ellen) [%] | % inhibition 10 ug/ml VZV (VZV strain Ellen) [%] |
| --- | --- | --- | --- | --- | --- | --- | --- | --- |
| O=C(Nc1ccc(NC(=S)NCc2ccccc2)cc1)c1csnn1 [Example 539] | 0.036 (≈ 0.0974 µM) | >10 | >10 | – | – | – | – | – |
| CC(C)c1nc(C(=O)Nc2ccc(NC(=S)Nc3cc(C(F)(F)F)cc(C(F)(F)F)c3)cc2)cs1 [Example 1133, 2-Isopropyl-thiazole-4-carboxylic acid {4-[3-(3,5 bis-trifluoromethyl-phenyl)-thioureido]-phenyl}-amide] | – | – | – | 1.5 (≈ 2.82 µM) | 6 (≈ 11.3 µM) | > 10 | – | – |
| O=C(Nc1ccc(NC(=S)NCc2ccc(Cl)c(Cl)c2)cc1)c1ccco1 [Example 545] | 0.012 (≈ 0.0285 µM) | 3 (≈ 7.14 µM) | 7 (≈ 16.7 µM) | – | – | – | – | – |
| CC(NC(=S)Nc1ccc(NC(=O)c2csnn2)cc1)c1ccc(F)cc1 (centres unmarked) [Example 565] | 0.01 (≈ 0.0249 µM) | >10 | 0.22 (≈ 0.548 µM) | – | – | – | – | – |
| COc1cccc(CCNC(=S)Nc2ccc(NC(=O)c3csnn3)cc2)c1 [Example 637] | 0.014 (≈ 0.0339 µM) | >10 | >10 | – | – | – | – | – |
| O=C(Nc1ccc(NC(=S)Nc2ccc(NC(=O)c3ccco3)cc2)cc1Cl)c1ccccc1 [Example 403] | 0.09 (≈ 0.183 µM) | 6 (≈ 12.2 µM) | >15 | – | – | – | – | 108 |
| O=C(Nc1ccc(NC(=S)NCc2ccc3c(c2)OCO3)cc1)c1csnn1 [Example 541] | 0.017 (≈ 0.0411 µM) | 7 (≈ 16.9 µM) | >10 | – | – | – | – | – |
| Nc1nccc(-c2ccc(NC(=S)Nc3ccc(NC(=O)c4csnn4)cc3)cc2Cl)n1 [Example 501] | 0.032 (≈ 0.0663 µM) | >10 | >10 | – | – | – | – | 10 |
| COc1cc(NC(=S)Nc2ccc(NC(=O)c3csnn3)cc2)cc(OC)c1 [Example 468] | 0.06 (≈ 0.144 µM) | >10 | >10 | – | – | – | – | 50 |
| O=C(CN1CCCC1)Nc1ccc(NC(=S)Nc2ccc(NC(=O)c3ccco3)cc2)cc1Cl [Example 416] | 0.25 (≈ 0.502 µM) | >10 | >15 | – | – | – | – | 87 |
| COc1cc(OC)c(NC(=S)Nc2ccc(NC(=O)c3ccnc4ccccc34)cc2)cc1Cl [Example 225] | >10 | 1 (≈ 2.03 µM) | >10 | – | – | – | – | 30 |
| CN1CCN(c2cc(NC(=S)Nc3ccc(NC(=O)c4csnn4)cc3)cc(C(F)(F)F)c2)CC1 [Example 558] | 0.05 (≈ 0.0959 µM) | 7 (≈ 13.4 µM) | >10 | – | – | – | – | – |
| COc1cc(OC)c(NC(=S)Nc2ccc(NC(=O)c3snnc3-c3ccoc3)cc2)cc1Cl [Example 288] | 4 (≈ 7.75 µM) | >10 | >10 | – | – | – | – | 30 |
| CC(NC(=S)Nc1ccc(NC(=O)c2cccs2)cc1)c1ccc(F)cc1 (centres unmarked) [Example 1128, Thiophene-2-carboxylic acid (4-{3-[1-(4-fluoro-phenyl)-ethyl]-thioureido}-phenyl)-amide] | – | – | – | 1.3 (≈ 3.25 µM) | > 10 | > 10 | – | – |
| O=C(Nc1ccc(NC(=S)Nc2ccccc2)cc1)c1csnn1 [Example 912, [1,2,3]Thiadiazole-4-carboxylic acid [4-(3-phenyl-thioureido)-phenyl]-amide] | – | – | – | 0.16 (≈ 0.45 µM) | > 10 | > 10 | 0 | – |
| O=C(Nc1ccc(NC(=S)NCCc2ccc(Br)cc2)cc1)c1ccco1 [Example 604] | 0.025 (≈ 0.0563 µM) | >10 | 10 (≈ 22.5 µM) | – | – | – | – | – |
| COc1cc(OC)c(NC(=S)Nc2ccc(NC(=O)c3nccc4ccccc34)cc2)cc1Cl [Example 158] | >10 | 4 (≈ 8.11 µM) | >15 | – | – | – | – | 52 |
| Nc1cccc(NC(=S)Nc2ccc(NC(=O)c3ccco3)cc2)c1 [Example 430] | 0.4 (≈ 1.14 µM) | >10 | >10 | – | – | – | – | – |
